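96-well plates; 48 h exposure; 5 concentrations. Endpoints by linear interpolation between flanking doses. Not reached: highest tested concentration assigned. Abbreviation: GI50, concentration required for 50% inhibition of growth. TGI: total growth inhibition.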
How the values were obtained:
Assay in all cases: NCI anticancer screen, dose series, 48 h
NCI-H226 lung = test system: NCI-H226 lung
SK-MEL-5 melanoma = test system: SK-MEL-5 melanoma
NCI-H522 lung = test system: NCI-H522 lung
NCI/ADR-RES ovarian = test system: NCI/ADR-RES ovarian
OVCAR-5 ovarian = test system: OVCAR-5 ovarian
IGROV1 ovarian = test system: IGROV1 ovarian
K-562 leukemia = test system: K-562 leukemia
SNB-19 CNS = test system: SNB-19 CNS
UACC-257 melanoma = test system: UACC-257 melanoma
UO-31 renal = test system: UO-31 renal
MDA-MB-231 breast = test system: MDA-MB-231 breast
SK-MEL-28 melanoma = test system: SK-MEL-28 melanoma
OVCAR-3 ovarian = test system: OVCAR-3 ovarian
SF-539 CNS = test system: SF-539 CNS
T-47D breast = test system: T-47D breast
RPMI-8226 leukemia = test system: RPMI-8226 leukemia
HCT-116 colon = test system: HCT-116 colon
SW-620 colon = test system: SW-620 colon
A498 renal = test system: A498 renal
MALME-3M melanoma = test system: MALME-3M melanoma
BT-549 breast = test system: BT-549 breast
786-0 renal = test system: 786-0 renal
RXF 393 renal = test system: RXF 393 renal
DU-145 prostate = test system: DU-145 prostate
HCT-15 colon = test system: HCT-15 colon
HCC-2998 colon = test system: HCC-2998 colon
UACC-62 melanoma = test system: UACC-62 melanoma
TK-10 renal = test system: TK-10 renal
COLO 205 colon = test system: COLO 205 colon
OVCAR-4 ovarian = test system: OVCAR-4 ovarian
MCF7 breast = test system: MCF7 breast
SK-MEL-2 melanoma = test system: SK-MEL-2 melanoma
SF-268 CNS = test system: SF-268 CNS
KM12 colon = test system: KM12 colon
EKVX NSCLC = test system: EKVX NSCLC
ACHN renal = test system: ACHN renal
OVCAR-8 ovarian = test system: OVCAR-8 ovarian
HT29 colon = test system: HT29 colon
MDA-MB-435 = test system: MDA-MB-435
HL-60(TB) leukemia = test system: HL-60(TB) leukemia
SN12C renal = test system: SN12C renal
M14 melanoma = test system: M14 melanoma
NCI-H23 lung = test system: NCI-H23 lung
SR leukemia = test system: SR leukemia
HOP-62 NSCLC = test system: HOP-62 NSCLC
U251 CNS = test system: U251 CNS
HS 578T breast = test system: HS 578T breast
SF-295 CNS = test system: SF-295 CNS
A549 NSCLC = test system: A549 NSCLC
SK-OV-3 ovarian = test system: SK-OV-3 ovarian
PC-3 prostate = test system: PC-3 prostate
CAKI-1 renal = test system: CAKI-1 renal
CCRF-CEM leukemia = test system: CCRF-CEM leukemia
SNB-75 CNS = test system: SNB-75 CNS
LOX IMVI melanoma = test system: LOX IMVI melanoma
NCI-H460 lung = test system: NCI-H460 lung

Work on `C[C@@]1(C(=O)O)CCC[C@]2(C)C1CC[C@@]13C[C@@](O)(CC[C@]12O)[C@@]1(CO1)C3` (stereo partly specified) yielded a GI50 (NCI-H226 lung) of over 100 µM, a TGI (NCI-H226 lung) of over 100 µM and a GI50 (SK-MEL-5 melanoma) of over 100 µM. It also gave a TGI (SK-MEL-5 melanoma) of over 100 µM, a GI50 (NCI-H522 lung) of over 100 µM and a TGI (NCI-H522 lung) of over 100 µM. The GI50 (NCI/ADR-RES ovarian) was over 100 µM, the TGI (NCI/ADR-RES ovarian) was over 100 µM and the GI50 (OVCAR-5 ovarian) was over 100 µM. It also gave a TGI (OVCAR-5 ovarian) of over 100 µM, a GI50 (IGROV1 ovarian) of over 100 µM and a TGI (IGROV1 ovarian) of over 100 µM. For the same compound, the GI50 (K-562 leukemia) was over 100 µM, the TGI (K-562 leukemia) was over 100 µM and the GI50 (SNB-19 CNS) was over 100 µM. The TGI (SNB-19 CNS) was over 100 µM, the GI50 (UACC-257 melanoma) was over 100 µM and the TGI (UACC-257 melanoma) was over 100 µM. It also gave a GI50 (UO-31 renal) of over 100 µM, a TGI (UO-31 renal) of over 100 µM and a GI50 (MDA-MB-231 breast) of over 100 µM. The TGI (MDA-MB-231 breast) was over 100 µM, the GI50 (SK-MEL-28 melanoma) was over 100 µM and the TGI (SK-MEL-28 melanoma) was over 100 µM. It also gave a GI50 (OVCAR-3 ovarian) of over 100 µM, a TGI (OVCAR-3 ovarian) of over 100 µM and a GI50 (SF-539 CNS) of over 100 µM. The TGI (SF-539 CNS) was over 100 µM, the GI50 (T-47D breast) was over 100 µM and the TGI (T-47D breast) was over 100 µM. It also gave a GI50 (RPMI-8226 leukemia) of over 100 µM, a TGI (RPMI-8226 leukemia) of over 100 µM and a GI50 (HCT-116 colon) of over 100 µM. For the same compound, the TGI (HCT-116 colon) was over 100 µM, the GI50 (SW-620 colon) was over 100 µM and the TGI (SW-620 colon) was over 100 µM. For the same compound, the GI50 (A498 renal) was over 100 µM, the TGI (A498 renal) was over 100 µM and the GI50 (MALME-3M melanoma) was over 100 µM. It also gave a TGI (MALME-3M melanoma) of over 100 µM, a GI50 (BT-549 breast) of over 100 µM and a TGI (BT-549 breast) of over 100 µM. It also gave a GI50 (786-0 renal) of over 100 µM, a TGI (786-0 renal) of over 100 µM and a GI50 (RXF 393 renal) of over 100 µM. It also gave a TGI (RXF 393 renal) of over 100 µM, a GI50 (DU-145 prostate) of over 100 µM and a TGI (DU-145 prostate) of over 100 µM. For the same compound, the GI50 (HCT-15 colon) was over 100 µM, the TGI (HCT-15 colon) was over 100 µM and the GI50 (HCC-2998 colon) was over 100 µM. The TGI (HCC-2998 colon) was over 100 µM, the GI50 (UACC-62 melanoma) was over 100 µM and the TGI (UACC-62 melanoma) was over 100 µM. The GI50 (TK-10 renal) was over 100 µM, the TGI (TK-10 renal) was over 100 µM and the GI50 (COLO 205 colon) was over 100 µM. It also gave a TGI (COLO 205 colon) of over 100 µM, a GI50 (OVCAR-4 ovarian) of over 100 µM and a TGI (OVCAR-4 ovarian) of over 100 µM. It also gave a GI50 (MCF7 breast) of over 100 µM, a TGI (MCF7 breast) of over 100 µM and a GI50 (SK-MEL-2 melanoma) of over 100 µM. The TGI (SK-MEL-2 melanoma) was over 100 µM, the GI50 (SF-268 CNS) was over 100 µM and the TGI (SF-268 CNS) was over 100 µM. The GI50 (KM12 colon) was over 100 µM, the TGI (KM12 colon) was over 100 µM and the GI50 (EKVX NSCLC) was over 100 µM. The TGI (EKVX NSCLC) was over 100 µM, the GI50 (ACHN renal) was over 100 µM and the TGI (ACHN renal) was over 100 µM. It also gave a GI50 (OVCAR-8 ovarian) of over 100 µM, a TGI (OVCAR-8 ovarian) of over 100 µM and a GI50 (HT29 colon) of over 100 µM. It also gave a TGI (HT29 colon) of over 100 µM, a GI50 (MDA-MB-435) of over 100 µM and a TGI (MDA-MB-435) of over 100 µM. The GI50 (HL-60(TB) leukemia) was over 100 µM, the TGI (HL-60(TB) leukemia) was over 100 µM and the GI50 (SN12C renal) was over 100 µM. For the same compound, the TGI (SN12C renal) was over 100 µM, the GI50 (M14 melanoma) was over 100 µM and the TGI (M14 melanoma) was over 100 µM. It also gave a GI50 (NCI-H23 lung) of over 100 µM, a TGI (NCI-H23 lung) of over 100 µM and a TGI (SR leukemia) of over 100 µM. It also gave a GI50 (HOP-62 NSCLC) of over 100 µM, a TGI (HOP-62 NSCLC) of over 100 µM and a GI50 (U251 CNS) of over 100 µM. It also gave a TGI (U251 CNS) of over 100 µM, a GI50 (HS 578T breast) of over 100 µM and a TGI (HS 578T breast) of over 100 µM. For the same compound, the GI50 (SF-295 CNS) was over 100 µM, the TGI (SF-295 CNS) was over 100 µM and the GI50 (A549 NSCLC) was over 100 µM. It also gave a TGI (A549 NSCLC) of over 100 µM, a GI50 (SK-OV-3 ovarian) of over 100 µM and a TGI (SK-OV-3 ovarian) of over 100 µM. It also gave a GI50 (PC-3 prostate) of over 100 µM, a TGI (PC-3 prostate) of over 100 µM and a GI50 (CAKI-1 renal) of over 100 µM. For the same compound, the TGI (CAKI-1 renal) was over 100 µM, the GI50 (CCRF-CEM leukemia) was over 100 µM and the TGI (CCRF-CEM leukemia) was over 100 µM. It also gave a GI50 (SNB-75 CNS) of over 100 µM, a TGI (SNB-75 CNS) of over 100 µM and a GI50 (LOX IMVI melanoma) of over 100 µM. The TGI (LOX IMVI melanoma) was over 100 µM, the GI50 (NCI-H460 lung) was over 100 µM and the TGI (NCI-H460 lung) was over 100 µM.
